# Laboratory results reported in US5767088A, “Tachykinin antagonists” (Warner-Lambert Company, priority 1996, dated 1998).
# Target: T1, NK3 receptor (Homo sapiens, UniProt P29371)
# T1 construct: host or cells: Chinese hamster ovary cells (membranes)
# T1 sequence (P29371 1-465): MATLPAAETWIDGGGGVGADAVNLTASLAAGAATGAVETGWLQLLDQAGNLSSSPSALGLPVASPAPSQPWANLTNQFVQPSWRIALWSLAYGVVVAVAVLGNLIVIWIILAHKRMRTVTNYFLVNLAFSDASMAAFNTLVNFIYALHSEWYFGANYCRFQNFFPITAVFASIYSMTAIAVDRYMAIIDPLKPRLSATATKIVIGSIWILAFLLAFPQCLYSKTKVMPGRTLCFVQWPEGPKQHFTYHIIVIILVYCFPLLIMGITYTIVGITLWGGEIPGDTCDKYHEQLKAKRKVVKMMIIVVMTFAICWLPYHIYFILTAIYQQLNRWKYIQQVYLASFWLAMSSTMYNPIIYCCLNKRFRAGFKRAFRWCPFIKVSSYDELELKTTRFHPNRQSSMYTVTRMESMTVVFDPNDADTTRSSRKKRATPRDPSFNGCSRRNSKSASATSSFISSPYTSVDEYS
# Assay: NK3 receptor binding assay, [125I]-[MePhe7]neurokinin B, Chinese hamster ovary cell membranes
# Details: competition with [125I]-[MePhe7]neurokinin B 40-100 pM, 90 minutes at 22° C., CHO cell membranes
row,Molecule,IC50
1,"CC(C)(C)OC(=O)N[C@@H](Cc1ccccc1)C(=O)NC(C)(Cc1ccccc1)C(=O)NCCCc1ccc(O)cc1 (mixture of isomers) [Example 4, DL-Phenylalaninamide, N-[(1,1-dimethylethoxy)carbonyl]-L-phenylalanyl-N-[3-(4-hydroxyphenyl)propyl]-α-methyl-]",88 nM
2,"CC(C)CCNC(=O)C(C)(Cc1ccccc1)NC(=O)[C@H](Cc1ccccc1)NC(=O)OC(C)(C)C (mixture of isomers) [Example 5, DL-Phenylalaninamide, N-[(1,1-dimethylethoxy)carbonyl]-L-phenylalanyl-α-methyl-N-3-methylbutyl-]",123 nM
3,"CC(C)(C)OC(=O)N[C@@H](Cc1ccccc1)C(=O)NC(C)(Cc1ccccc1)C(=O)NCCCCCc1ccccc1 (mixture of isomers) [Example 6, DL-Phenylalaninamide, N-[(1,1-dimethylethoxy)carbonyl]-L-phenylalanyl-α-methyl-N-(5-phenylpentyl)-]",77 nM
4,"CC(C)(C)OC(=O)N[C@@H](Cc1ccccc1)C(=O)NC(C)(Cc1ccccc1)C(=O)NC1CCCC1 (mixture of isomers) [Example 7, DL-Phenylalaninamide, N-[(1,1-dimethylethoxy)carbonyl]-L-phenylalanyl-N-cyclopentyl-α-methyl-]",556 nM
5,"CC(=O)NCCNC(=O)C(C)(Cc1ccccc1)NC(=O)[C@H](Cc1ccccc1)NC(=O)OC(C)(C)C (mixture of isomers) [Example 10, DL-Phenylalaninamide, N-[(1,1-dimethylethoxy)carbonyl]-L-phenylalanyl-N-[2-(acetylamino)ethyl]-α-methyl-]",180 nM
6,"CC(C)(C)OC(=O)N[C@@H](Cc1ccccc1)C(=O)NC(C)(Cc1ccccc1)C(=O)NCCC1CCCC1 (mixture of isomers) [Example 11, DL-Phenylalaninamide, N-[(1,1-dimethylethoxy)carbonyl]-L-phenylalanyl-N-(2-cyclopentylethyl)-α-methyl-]",129 nM
7,"CC(C)(C)OC(=O)N[C@@H](Cc1ccccc1)C(=O)NC(C)(Cc1ccccc1)C(=O)NCCc1ccc(Cl)cc1 (mixture of isomers) [Example 12, DL-Phenylalaninamide, N-[(1,1-dimethylethoxy)carbonyl]-L-phenylalanyl-N-[2-(4-chlorophenyl)ethyl]-α-methyl-]",141 nM
8,"CC(Cc1ccccc1)(NC(=O)[C@H](Cc1ccccc1)NC(=O)OCC1CCCCC1)C(N)=O (mixture of isomers) [Example 16, DL-Phenylalaninamide, N-[(cyclohexylmethoxy)carbonyl]-L-phenylalanyl-α-methyl-]",1220 nM
9,"CC(C)COC(=O)N[C@@H](Cc1ccccc1)C(=O)NC(C)(Cc1ccccc1)C(N)=O (mixture of isomers) [Example 17, DL-Phenylalaninamide, N-[(2-methylpropoxy)carbonyl]-L-phenylalanyl-α-methyl-]",1310 nM
10,"CC(Cc1ccccc1)(NC(=O)[C@H](Cc1ccccc1)NC(=O)OCc1ccc(Cl)c(Cl)c1)C(N)=O (mixture of isomers) [Example 18, DL-Phenylalaninamide, N-[[(3,4-dichlorophenyl)-methoxy]carbonyl]-L-phenylalanyl-α-methyl-]",1530 nM
11,"CC(C)(C)OC(=O)N[C@@H](Cc1ccccc1)C(=O)NC(C)(Cc1cccc(Cl)c1)C(N)=O (mixture of isomers) [Example 20, DL-Phenylalaninamide, N-[(1,1-dimethylethoxy)carbonyl]-L-phenylalanyl-3-chloro-α-methyl-]",1350 nM
12,"CC(C)(C)OC(=O)NC(Cc1cccc(Cl)c1)C(=O)N[C@](C)(Cc1ccccc1)C(N)=O (mixture of isomers) [Example 21, D-Phenylalaninamide, 3-chloro-N-[(1,1-dimethylethoxy)-carbonyl]-DL-phenylalanyl-α-methyl-]",904 nM
13,"CC(C)(C)OC(=O)N[C@@H](Cc1ccccc1)C(=O)NC(C)(Cc1ccccc1)C(=O)NCC1CCC(C(=O)O)CC1 (mixture of isomers) [Example 13, DL-Phenylalaninamide, N-[(1,1-dimethylethoxy)carbonyl]-L-phenylalanyl-N-[(4-carboxycyclohexyl)methyl]-α-methyl-, trans-]",719 nM
14,COc1ccc(CCCCNC(=O)[C@@](C)(Cc2ccccc2)NC(=O)[C@H](Cc2ccccc2)NC(=O)OC(C)(C)C)cc1 [Example 3],83 nM
15,"CC(C)(C)OC(=O)NC(CNC(Cc1ccccc1)C(N)=O)Cc1ccccc1 (stereo not drawn) [Example 22, Carbamic acid, [2-[[2-amino-2-oxo-1-(phenylmethyl)-ethyl]amino]-1-(phenylmethyl)ethyl]-, 1,1-dimethylethyl ester]",4330 nM
16,"DL-Phenylalaninamide, N-[[(octahydro-2-naphthalenyl)-oxy]carbonyl]-L-phenylalanyl-α-methyl [Example 19]",3060 nM

# Target: T2, NK3 (Cavia porcellus, UniProt P30098)
# T2 sequence (P30098 1-440): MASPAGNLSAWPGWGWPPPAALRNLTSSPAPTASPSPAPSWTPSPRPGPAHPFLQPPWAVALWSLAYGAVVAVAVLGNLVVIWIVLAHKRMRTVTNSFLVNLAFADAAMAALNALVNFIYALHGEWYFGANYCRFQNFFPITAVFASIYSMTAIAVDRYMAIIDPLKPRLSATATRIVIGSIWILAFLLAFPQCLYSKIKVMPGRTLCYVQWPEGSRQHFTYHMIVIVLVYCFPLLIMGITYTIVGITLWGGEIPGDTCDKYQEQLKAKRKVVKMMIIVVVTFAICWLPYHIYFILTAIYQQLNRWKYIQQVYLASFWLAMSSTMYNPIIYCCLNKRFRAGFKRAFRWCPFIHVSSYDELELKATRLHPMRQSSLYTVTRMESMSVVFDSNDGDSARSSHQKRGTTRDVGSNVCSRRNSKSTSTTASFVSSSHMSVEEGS
# Assay: guinea pig ileum assay (Schild analysis of contractile responses)
# Assay type: cell-based
# Parameters: in vitro peripheral guinea pig ileum assay; from tissue; host or cells: guinea pig ileum (organ bath)
# Details: NK3 antagonist activity; antagonist dissociation constant by Schild analysis
row,Molecule,Kb
1,"CC(C)(C)OC(=O)N[C@@H](Cc1ccccc1)C(=O)N[C@](C)(Cc1ccccc1)C(=O)NCCCCCCCCC(N)=O [Example 2, D-Phenylalaninamide, N-[(1,1-dimethylethoxy)carbonyl]-L-phenylalanyl-N-(9-amino-9-oxononyl)-α-methyl-]",10 nM

# Target: T2, NK3
# Assay: guinea pig medial habenula assay (block of senktide-induced increases in firing rate, brain slice)
# Assay type: cell-based
# Parameters: guinea pig medial habenula neurones in a brain slice preparation in vitro; from tissue; host or cells: guinea pig medial habenula brain slice
# Details: NK3 antagonist activity; mean equilibrium constant against senktide; brain slice in vitro; read-out: Guinea Pig Medial Habenula (Ke)
row,Molecule,Kd
1,"CC(C)(C)OC(=O)N[C@@H](Cc1ccccc1)C(=O)N[C@](C)(Cc1ccccc1)C(=O)NCCCCCCCCC(N)=O [Example 2, D-Phenylalaninamide, N-[(1,1-dimethylethoxy)carbonyl]-L-phenylalanyl-N-(9-amino-9-oxononyl)-α-methyl-]",25 nM
